One test relates to human DNA polymerase δ. The experiment in a line: Human DNA polymerase inhibition, delta. It counts as biochemical. As to conditions: Pol δ, "activated" DNA; for IC50: read-out: ID50 (the source's name). The source says:
(§1) Viral DNA polymerases (HSV-1, HSV-2, EBV) were purified by previously published methods (Derce, D. K. F. Bastow, and Y. C. Cheng (1982) J. Boil. Chem. 257:10251-10260; Ostrander, M., and Y. C. Cheng (1980) Biochim. Biophys. Acta 609:232-245; Tan, R. S., A. Datta. and Y. C. Cheng (1982) J. Virol. 44:893-899). These procedures generally included sequential chromatography on DEAE-cellulose. HIV reverse transcriptase was purified by antibody affinity column chromatography as descrbed (Starnes. M. C. and Y. C. Cheng (1989) J. Biol. Chem. 264:7073-7077). The purified enzymes were dialyzed against and stored in 50 mM Tris-HCl (pH 7.5) containing 1 mM each of DTT, EDTA and PMSF plus 30% glycerol. Mammalian DNA polymerases alpha, beta, gamma, and delta were partially purified from K562 celles (chronic myelogenous leukemia tissue culture line). Briefly, washed cell pellets were extracted and passed throgh DEAE-cellulose in the presence of 300 mM KPO4 (pH 7.5) as previously described (Starnes, M. C., and Y. C. Cheng (1987) J. Biol. Chem 282:988-981) to remove DNA. The column flow-through fractions were dialyzed against buffer which contained 50 mM Tris-HCl (pH 7.5), and fractionated on a single-stranded DNA-cellulose column with a 0-1M KCl gradient.
(§2) In accordance with the teaching of the present invention similar enzyme inhibition assays were also conducted with respect to mammalian enzymes, more particularly, human DNA polymerase.

The target in the next test is T1, HSV-1 DNA polymerase (Human herpesvirus 1, UniProt P04293).
T1 construct: made in house
T1 sequence (P04293 whole entry): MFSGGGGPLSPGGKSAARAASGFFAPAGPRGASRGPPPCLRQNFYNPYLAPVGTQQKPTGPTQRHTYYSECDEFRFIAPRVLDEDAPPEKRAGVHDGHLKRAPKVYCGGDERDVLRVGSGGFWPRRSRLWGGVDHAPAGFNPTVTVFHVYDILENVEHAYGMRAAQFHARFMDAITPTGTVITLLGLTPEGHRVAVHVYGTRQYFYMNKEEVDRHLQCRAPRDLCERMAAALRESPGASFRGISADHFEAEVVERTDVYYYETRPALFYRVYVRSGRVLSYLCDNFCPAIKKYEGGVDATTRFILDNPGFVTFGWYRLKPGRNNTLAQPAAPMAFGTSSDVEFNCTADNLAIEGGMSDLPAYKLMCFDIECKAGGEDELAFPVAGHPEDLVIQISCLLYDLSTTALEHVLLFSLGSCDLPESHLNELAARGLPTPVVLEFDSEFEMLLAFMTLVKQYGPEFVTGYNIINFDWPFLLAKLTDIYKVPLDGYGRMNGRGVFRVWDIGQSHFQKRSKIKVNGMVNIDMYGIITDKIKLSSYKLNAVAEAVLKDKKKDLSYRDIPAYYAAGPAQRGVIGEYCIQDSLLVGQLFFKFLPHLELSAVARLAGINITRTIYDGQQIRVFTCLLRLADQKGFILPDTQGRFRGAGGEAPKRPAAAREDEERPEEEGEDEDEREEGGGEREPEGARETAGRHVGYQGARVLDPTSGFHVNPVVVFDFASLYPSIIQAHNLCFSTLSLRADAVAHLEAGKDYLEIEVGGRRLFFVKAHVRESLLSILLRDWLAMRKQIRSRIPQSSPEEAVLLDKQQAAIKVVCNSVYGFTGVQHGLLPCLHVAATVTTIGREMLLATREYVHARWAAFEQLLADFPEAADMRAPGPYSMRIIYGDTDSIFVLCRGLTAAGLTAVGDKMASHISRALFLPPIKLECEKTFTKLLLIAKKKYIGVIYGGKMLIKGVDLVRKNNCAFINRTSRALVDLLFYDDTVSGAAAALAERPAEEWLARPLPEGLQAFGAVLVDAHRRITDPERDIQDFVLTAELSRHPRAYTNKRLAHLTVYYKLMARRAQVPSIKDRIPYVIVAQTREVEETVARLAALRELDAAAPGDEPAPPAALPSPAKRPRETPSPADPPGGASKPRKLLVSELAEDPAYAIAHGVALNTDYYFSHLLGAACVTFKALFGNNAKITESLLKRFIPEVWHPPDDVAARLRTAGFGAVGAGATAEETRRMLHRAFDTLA
The experiment in a line: Viral polymerase inhibition, HSV-1. In kind it is biochemical.
Description: as §1, with “gradient. […]” for “gradient.”

The next test addresses T2, HSV-2 DNA polymerase (Human herpesvirus 2, UniProt P89453).
T2 construct: made in house
The test is described as follows: Viral polymerase inhibition, HSV-2. In kind it is biochemical.
Description: as §1
Standard assays were run at 37° C. and contained: 50 mM Tris, pH b 8.0, 0.5 mM DTT, 8 mM MgCl2, 100 μg/mL BSA, 150 μg/mL gapped calf thymus DNA, 100 μM each dATP, dCTP, dGTP, 10 .parallel.M [^3 H]-dTTP, and 1-5 .parallel.L enzyme in a final volume of 50 .parallel.L. Modified assays for pH dependence inhibition studies with PFA (1) and α--oxo phosphonates (4 and 5) contained 50 mM Hepes, pH 8.2-6.5, 8 mM MgCl2, 100 mM KCl, 100 μg/ml BSA, 0.5 A260 units/ml of poly(rA).(dT)10, 100 μM [^3 H]dTTP, and 1.5 .parallel.L enzyme in a final volume of 50 μL. Samples were processed as described above.

Another test addresses T3, human DNA polymerase β (Homo sapiens, UniProt P06746).
T3 construct: Mammalian DNA polymerases alpha, beta, gamma, and delta were partially purified from K562 celles; endogenous in cells; host or cells: K562 (chronic myelogenous leukemia tissue culture line)
The experiment in a line: Human DNA polymerase inhibition, beta. In kind it is biochemical. The following applies: for remaining activity at 100 µM: read-out: % Control at 100 μM ± S.D.
Description: as §1, §2

The subject of another test is HSV-1. The following applies: reported by Hutchinson et al.; cited from earlier work.

Data on 2 compounds can be found in patent US5072032A, “Preparation and use of thiophosphonates and thio-analogues of phosphonoformic acid” (priority 1989, dated 1991).

SMILES strings stand for the structures. Where two headings read alike, the source gives them in different places. Bounds are passed on as bounds.

T2 sequence (P89453 whole entry): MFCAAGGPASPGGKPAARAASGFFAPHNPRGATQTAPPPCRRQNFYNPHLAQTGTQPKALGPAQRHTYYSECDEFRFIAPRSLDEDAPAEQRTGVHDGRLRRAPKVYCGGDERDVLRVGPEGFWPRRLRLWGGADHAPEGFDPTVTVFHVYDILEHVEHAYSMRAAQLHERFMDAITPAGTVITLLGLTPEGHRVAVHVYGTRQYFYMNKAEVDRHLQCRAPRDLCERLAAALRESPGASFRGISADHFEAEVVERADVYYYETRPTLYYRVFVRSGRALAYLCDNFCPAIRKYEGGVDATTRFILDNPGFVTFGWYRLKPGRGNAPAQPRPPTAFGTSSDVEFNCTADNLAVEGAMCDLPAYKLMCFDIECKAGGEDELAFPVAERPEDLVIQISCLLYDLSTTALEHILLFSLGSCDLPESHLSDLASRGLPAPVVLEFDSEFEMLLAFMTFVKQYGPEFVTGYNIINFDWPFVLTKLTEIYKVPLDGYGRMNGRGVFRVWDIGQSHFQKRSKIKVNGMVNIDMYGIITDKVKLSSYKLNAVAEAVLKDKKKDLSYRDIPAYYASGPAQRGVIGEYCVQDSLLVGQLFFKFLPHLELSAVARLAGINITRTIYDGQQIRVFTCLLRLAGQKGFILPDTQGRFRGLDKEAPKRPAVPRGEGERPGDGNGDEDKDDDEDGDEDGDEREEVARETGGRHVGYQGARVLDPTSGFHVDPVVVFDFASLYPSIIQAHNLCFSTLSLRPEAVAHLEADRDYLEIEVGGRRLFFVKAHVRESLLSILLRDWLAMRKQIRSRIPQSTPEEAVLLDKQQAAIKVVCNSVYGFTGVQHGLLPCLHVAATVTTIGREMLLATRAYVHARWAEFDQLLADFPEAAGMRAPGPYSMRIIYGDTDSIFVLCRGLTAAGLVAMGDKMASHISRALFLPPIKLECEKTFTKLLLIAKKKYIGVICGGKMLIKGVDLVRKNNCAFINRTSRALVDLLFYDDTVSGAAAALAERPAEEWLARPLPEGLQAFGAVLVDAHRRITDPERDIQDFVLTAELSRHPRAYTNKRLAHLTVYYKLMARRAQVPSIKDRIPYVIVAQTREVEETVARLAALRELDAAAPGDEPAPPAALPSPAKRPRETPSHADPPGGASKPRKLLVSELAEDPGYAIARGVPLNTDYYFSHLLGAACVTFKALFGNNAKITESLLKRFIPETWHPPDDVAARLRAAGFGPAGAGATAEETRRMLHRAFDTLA

Take `O=C(O)P(O)(O)=S` [TPFA, thiophosphonoformic acid]: the “% Control at 100 μM ± S.D.” value in the test with human DNA polymerase δ was determined as 69 ± 6%. In addition, the IC50 on human DNA polymerase δ was greater than 100 µM; against HSV-1 DNA polymerase, 11.8 µM; against HSV-2 DNA polymerase it was 11.3 µM; against human DNA polymerase β, greater than 100 µM. Further, at HSV-2 DNA polymerase (HSV-2 enzyme, ratio of ID50 values of Table I), the “effectiveness of TPFA relative to PFA” value was “fifteen to twenty times less effective”. On human DNA polymerase β, the remaining activity at 100 µM is 91 ± 4%. Also, the “relative ID50 values with respect to HSV-1” value in the test with HSV-1 is listed as 9.

For the compound `O=C(O)P(=O)(O)O` [PFA, phosphonoformic acid], the “% Control at 100 μM ± S.D.” value in the test on human DNA polymerase δ was 36 ± 3%. Further, the IC50 on human DNA polymerase δ was 71 µM; on HSV-1 DNA polymerase (HSV-1, "activated" DNA, read-out: ID50 (the source's name)), 0.7 µM; at HSV-2 DNA polymerase (HSV-2, "activated" DNA, read-out: ID50 (the source's name)) it was 0.7 µM; at human DNA polymerase β (Pol β, "activated" DNA, read-out: ID50 (the source's name)), greater than 100 µM. The remaining activity at 100 µM on human DNA polymerase β (Pol β, 100 μM, "activated" DNA) turned out to be 89 ± 8%. Moreover, in the test on HSV-1, the “relative ID50 values with respect to HSV-1” value is recorded as 12.
